US9149465B2, “Isoxazolines as inhibitors of fatty acid amide hydrolase” (Infinity Pharmaceuticals, Inc., priority 2009, dated 2015)
pKi: −log10 of the molar value.

Biological target: T1, human FAAH (Homo sapiens, UniProt O00519)
T1 construct: host or cells: COS-7 cells, transient transfection; 13,000 g membrane fraction solubilised in 1% Triton X-100
T1 sequence (O00519 1-579): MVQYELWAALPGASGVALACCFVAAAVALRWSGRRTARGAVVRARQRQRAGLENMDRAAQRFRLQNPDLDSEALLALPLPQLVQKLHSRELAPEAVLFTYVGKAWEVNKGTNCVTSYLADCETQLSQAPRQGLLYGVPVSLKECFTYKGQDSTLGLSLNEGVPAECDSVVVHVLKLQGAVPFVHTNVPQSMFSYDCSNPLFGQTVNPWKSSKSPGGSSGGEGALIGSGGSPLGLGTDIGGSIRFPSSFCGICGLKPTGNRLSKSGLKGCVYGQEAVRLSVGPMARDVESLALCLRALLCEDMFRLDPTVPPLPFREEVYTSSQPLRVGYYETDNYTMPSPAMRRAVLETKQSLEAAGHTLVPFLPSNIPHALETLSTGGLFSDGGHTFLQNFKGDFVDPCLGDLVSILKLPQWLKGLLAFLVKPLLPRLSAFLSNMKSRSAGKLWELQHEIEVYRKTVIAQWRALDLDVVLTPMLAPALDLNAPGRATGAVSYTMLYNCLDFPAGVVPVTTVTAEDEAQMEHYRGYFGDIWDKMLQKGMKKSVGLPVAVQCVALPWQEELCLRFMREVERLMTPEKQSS
Assay: Inhibition of human FAAH (AMC arachidonoyl amide fluorescence assay)
Format: biochemical
Conditions: inhibitor preincubated 30 minutes at room temperature; 20 μM AMC arachidonoyl amide; 4 hours; read-out: Activity (Ki, inhibitors of human FAAH)
Procedure: Human FAAH Preparation: COS-7 cells were split the day before, 1:5 into 150 mm x […] cell culture dishes (Corning Inc., Cat. No. 430599). Transient transfection took place at 30-40% confluency according to FuGENE 6 Transfection Reagent (Roche, Cat. No. 11814 443 001).
Transfection Procedure: The FuGENE transfection 6 reagent (45 uL) was added to 1410 μL of media (DMEM, serum free without pen/strep) in a 15 mL conical tube and incubated at room temp for 5 minutes, followed by the addition of FAAH plasmid DNA (15 μg) (OriGene Cat. No. TC119221, Genbank Accession No. NM_001441.1, 0.67 ug/uL) and a further incubation of 15 minutes at room temperature. The resulting solution was added into one dish of 30-40% confluent COS-7 cells in a drop-wise manner. The COS-7 cell dish was subsequently incubated for 48 hours. The cells are then harvested.
Harvest procedure: Media was aspirated from the dishes and the cells rinsed with 10 mL PBS. The PBS was removed and 3 mL of PBS added to the dish. The dish was scraped to resuspend the cells, and the subsequent cell suspension collected into a 15 mL conical tube. The cells were pelleted by centrifugation at 1200 rpm for 5 minutes in a bench top centrifuge. PBS was removed and the cell pellet snap frozen in liquid nitrogen and stored at −80° C.
COS-7 cells —FAAH purification: • (1) Fractionation: Frozen cell pellets from transient transfections were thawed on ice and resuspended in 12.5 mM Hepes pH 8.0, 100 mM NaCl, 1 mM EDTA (10 mL/0.2 g cell pellet). The pellets were dounce homogenized and then sonicated to produce cell extract. The cell extract was subsequently centrifuged at 1000 g to remove cellular debris. The pellet was discarded and the supernatant centrifuged at 13,000 g for 20 minutes. The pellet contained membrane bound FAAH. The supernatant was discarded and the pellet resolubilized. • (2) Re-solubilization: The fraction of interest, (13,000 g, membrane fraction) was re-suspended in 2.3 mL re-suspension buffer (20 mM Hepes pH 7.8, 10% v/v Glycerol, 1 mM EDTA, 1% Triton X-100) and the sample incubated on ice for 1 hour and then centrifuged to remove any particulate matter. The supernatant containing solubilized human FAAH was aliquoted and snap frozen in liquid nitrogen and stored at −80° C. until use. • (3) Characterization: Protein Concentration determined by Bradford assay. • SDS gel and Western blot to confirm presence of FAAH • FAAH activity assay • Km determination-96-well assay • Linear dependence—96-well assay • Standard compound Ki determination—384-well assay
Human FAAH assay; Experimental Protocol: A 0.1 mg/mL Human FAAH solution was made up in FAAH reaction buffer, and 24 ul pipeted into a 384 well plate. To this was added 1 μL of a 3 fold serially diluted inhibitor from a DMSO stock solution. The FAAH solution and inhibitor were incubated for 30 minutes at room temperature. The FAAH reaction was initiated by the addition of 25 μL of 40 μM AMC Arachidonoyl Amide in FAAH reaction buffer, yielding a final reaction human FAAH preparation concentration of 0.05 mg/ml and AMC-Arachidonoyl substrate concentration of 20 μM, reaction volume 50 μL. The reaction was allowed to proceed for 4 hours at room temperature. The reaction was stopped by the addition of 25 μL 12 μM a-ketoheterocycle (Cayman Chemicals, catalogue #10435). The microtiter plate was read in the envision plate reader.
The raw fluorescence was plotted on the y axis and the inhibitor concentration on the x axis to give a dose response inhibition curve. The data was fitted to a single site competitive inhibition equation, fixing the Km for the human enzyme to 12 μM and 9 μM respectively.

SMILES | pKi
BrC1=NOC(CCc2ccccc2)C1 (single isomer, unassigned) [I-49] | 6.00 to 7.00
C[C@]1(c2ccc(-c3ccccc3)cc2)CC(Br)=NO1 (racemic) [I-102] | ≥ 7.00
Cn1cc(-c2ccc(OC3=NOC(C)(c4ccc(OC(F)(F)F)cc4)C3)cn2)cn1 (racemic) [I-240] | ≥ 7.00
Fc1ccc([C@H]2CC(Br)=NO2)cc1 (racemic) [I-2] | 6.00 to 7.00
FC(F)(F)Oc1ccc(C2CC(Oc3ccc(-c4ccccc4)nc3)=NO2)cc1 (racemic) [I-86] | 6.00 to 7.00
FC(F)(F)Oc1ccc(C2CC(Oc3ccc(-c4ncco4)nc3)=NO2)cc1 (racemic) [I-163] | ≥ 7.00
CCS(=O)(=O)c1ccc(OC2=NOC(C)(c3ccc(OC(F)(F)F)cc3)C2)cn1 (racemic) [I-196] | ≥ 7.00
O=C(O)c1ccc(-c2ccc(OC3=NOC(c4ccc(OC(F)(F)F)cc4)C3)cn2)s1 (racemic) [I-193] | 6.00 to 7.00
Nc1ccc(OC2=NOC(c3ccc(Oc4ccccc4)cc3)C2)cn1 (stereo not shown) [I-93] | ≥ 7.00
BrC1=NO[C@@H](c2ccc(Br)cc2)C1 (racemic) [I-148] | ≥ 7.00
Cn1nc(C(F)(F)F)cc1-c1ccc(OC2=NOC(c3ccc(OC(F)(F)F)cc3)C2)cn1 (racemic) [I-191] | ≤ 6.00
BrC1=NOC(c2ccc(Oc3ncccn3)cc2)C1 (single isomer, unassigned) [I-13] | ≥ 7.00
CN(C)S(=O)(=O)c1ccc(OC2=NOC(C)(c3ccc(OC(F)(F)F)cc3)C2)cc1 (racemic) [I-235] | ≤ 6.00
Cc1nnc(-c2cccc(OC3=NOC(C)(c4ccc(OC(F)(F)F)cc4)C3)c2)o1 (racemic) [I-222] | ≥ 7.00
CNC(=O)c1ccc(OC2=NOC(C)(c3ccc(OC(F)(F)F)cc3)C2)cn1 (racemic) [I-114] | ≥ 7.00

More lines, now with the values ahead:

pKi | SMILES
6.00 to 7.00 | NC(=O)CNC(=O)c1ccc(OC2=NOC(c3ccc(OC(F)(F)F)cc3)C2)cn1 (racemic) [I-118]
6.00 to 7.00 | COc1ncc(OC2=NOC(c3ccc(OC(F)(F)F)cc3)C2)cc1F (racemic) [I-136]
≥ 7.00 | O=C(O)CNC(=O)c1ccc(OC2=NOC(c3ccc(OC(F)(F)F)cc3)C2)cn1 (racemic) [I-106]
≥ 7.00 | O=C(O)CCc1ccc(OC2=NOC(c3ccc(OC(F)(F)F)cc3)C2)cn1 (racemic) [I-128]
≥ 7.00 | BrC1=NO[C@@H](c2ccc(-c3ccccc3)cc2)C1 (racemic) [I-9]
≥ 7.00 | CSc1ccc(OC2=NOC(c3ccc(OC(F)(F)F)cc3)C2)cn1 (racemic) [I-134]
≥ 7.00 | CCCCc1ccc([C@H]2CC(Oc3cncnc3)=NO2)cc1 (racemic) [I-180]
6.00 to 7.00 | COC(=O)c1cncc(OC2=NOC(c3ccc(OC(F)(F)F)cc3)C2)c1 (single isomer, unassigned) [I-46]
≥ 7.00 | CC(C)Oc1ccc([C@H]2CC(Oc3ccc(C(=O)O)nc3)=NO2)cc1 (racemic) [I-140]
≥ 7.00 | C#CCOc1ccc([C@H]2CC(Br)=NO2)cc1 (racemic) [I-142]
≥ 7.00 | Fc1cccc(-c2ccc(C3CC(Oc4cncnc4)=NO3)c(F)c2)c1 (racemic) [I-119]
≥ 7.00 | O=C(O)c1cc(OC2=NOC(c3ccc(OC(F)(F)F)cc3)C2)ccn1 (racemic) [I-152]
≥ 7.00 | CC1(c2ccc(OC(F)(F)F)cc2)CC(Oc2ccc(C(=O)O)nc2)=NO1 (racemic) [I-113]
≥ 7.00 | CCCCOc1ccc([C@H]2CC(Br)=NO2)cc1 (racemic) [I-20]
≥ 7.00 | CC1(c2ccc(OC(F)(F)F)cc2)CC(Oc2cncnc2)=NO1 (racemic) [I-129]
6.00 to 7.00 | BrC1=NOC(c2ccccc2)C1 (single isomer, unassigned) [I-1]
≤ 6.00 | O[C@@H](CNC1=NOC(c2ccc(OC(F)(F)F)cc2)C1)c1ccccc1 (mixture of isomers) [I-246]
≤ 6.00 | Fc1ccc(OC2=NOC(c3ccc(Oc4ccccc4)cc3)C2)cc1C(F)(F)F (racemic) [I-60]
6.00 to 7.00 | O=C(O)c1cccc(OC2=NOC(c3ccc(Oc4ccccc4)cc3)C2)c1 (racemic) [I-146]
